One data set has as its target Dv-ACE-1 (Dictyocaulus viviparus, UniProt Q0H0R6). The data set is described as follows: Ellman assay, transfected COS-7 extract, logistic fit. In kind it is biochemical. A general note: DTNB colorimetry detects thiols as they appear.
For another data set, the system named is CCCC(=O)SCC[N+](C)(C)C. The data set is described as follows: Ellman assay, transfected COS-7 extract, fit with Km, Kss and b. Type of data set: biochemical, Dictyocaulus viviparus. The note with it: pH 7, 0.3 mM DTNB, 167 mM NaCl, substrate-activation model.
The subject of a further data set is CCC(=O)SCC[N+](C)(C)C. Described as above. The note with it: pH 7, 0.3 mM DTNB, 167 mM NaCl, substrate-inhibition model. In kind it is biochemical, Dictyocaulus viviparus.
Another data set concerns CC(=O)SCC[N+](C)(C)C. Described as above. Type of data set: biochemical, Dictyocaulus viviparus. The note with it: pH 7, 0.3 mM DTNB, 167 mM NaCl, substrate-inhibition model.

Regarding `CC(C)NP(=O)(NC(C)C)OP(=O)(NC(C)C)NC(C)C` [iso-OMPA], the half-maximal inhibitory concentration (IC50) on Dv-ACE-1 is more than 3000 µM.

As to Dv-ACE-1 (Dictyocaulus viviparus), the Km is 4.32 ± 1.61 × 10^−5 M with CCCC(=O)SCC[N+](C)(C)C, 1.59 ± 0.03 × 10^−3 M in the data set with CCC(=O)SCC[N+](C)(C)C and 7.51 ± 0.21 × 10^−4 M with CC(=O)SCC[N+](C)(C)C.

As for `C=CC[N+](C)(C)c1ccc(CCC(=O)CCc2ccc([N+](C)(C)CC=C)cc2)cc1` [BW284c51], at Dv-ACE-1, it took 0.303 µM to reach half-maximal inhibition (IC50).

The molecule `CCN(CC)C(C)CN1c2ccccc2Sc2ccccc21` (stereo not shown) [ethopropazine] showed a half-maximal inhibitory concentration (IC50) against Dv-ACE-1 of 137 µM.

At Dv-ACE-1, `CNC(=O)Oc1ccc2c(c1)[C@]1(C)CCN(C)[C@@H]1N2C` [physostigmine] had an IC50 of 0.126 µM.

What is called IC50 is the concentration needed to halve the response being measured.

Source of the values: publication PMC3222274 (Molecular and biochemical parasitology, 2011).
